The text below walks through data of patent US20090253789A1, “Preventive/Remedy for Arteriosclerotic Disease and Method of Evaluating Therapeutic Procedure” (Takeda Pharmaceutical Company Limited, priority 2006, published 2009).

Experiment [1] has as its system atherosclerotic lesion. As to conditions: pre-clinical tests; accompanied with reduction in plasma cholesterol level; cited from earlier work.
The conditions of experiment [2]: clinical test; cited from earlier work.
A further experiment has as its target T1, ACAT (Oryctolagus cuniculus, UniProt A0A5F9CPP4).
T1 construct: to obtain a homogenate, which was used as an “atherosclerotic lesion sample” for a biochemical measurement; from tissue; host or cells: aortic atherosclerotic lesion tissue homogenate of WHHL rabbits dosed orally for 3 days
T1 sequence (A0A5F9CPP4 1-555): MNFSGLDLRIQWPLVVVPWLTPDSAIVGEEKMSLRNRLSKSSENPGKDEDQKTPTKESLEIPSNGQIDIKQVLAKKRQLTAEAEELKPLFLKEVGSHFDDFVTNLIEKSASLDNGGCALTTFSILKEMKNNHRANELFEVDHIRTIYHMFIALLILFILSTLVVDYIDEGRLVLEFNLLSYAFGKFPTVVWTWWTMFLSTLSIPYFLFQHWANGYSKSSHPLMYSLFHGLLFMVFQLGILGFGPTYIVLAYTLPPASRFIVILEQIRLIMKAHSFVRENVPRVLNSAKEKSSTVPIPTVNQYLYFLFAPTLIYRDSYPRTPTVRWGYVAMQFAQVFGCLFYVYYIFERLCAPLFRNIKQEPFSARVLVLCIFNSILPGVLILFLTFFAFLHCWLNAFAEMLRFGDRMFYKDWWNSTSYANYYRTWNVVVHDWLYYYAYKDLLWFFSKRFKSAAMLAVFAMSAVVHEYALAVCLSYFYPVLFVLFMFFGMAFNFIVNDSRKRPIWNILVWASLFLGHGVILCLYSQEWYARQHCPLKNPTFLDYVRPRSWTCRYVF
In words: Atherosclerotic lesion ACAT enzyme inhibition test (3-day oral administration, lesion homogenate, correction markers). The format is in vivo, WHHL rabbit. The source says: Using a rabbit having an atherosclerotic lesion in the aorta due to rearing with a high cholesterol diet, or due to hereditary hyperlipemia, etc., an ACAT inhibitor or a medium was orally administered once a day for 3 days. About two hours after final administration, the rabbit was anesthetized and killed by exsanguination, and the aorta was removed, frozen and stored. After thawing the frozen-stored aorta, a tissue section of an atherosclerotic lesion residing site was corrected using a biopsy trephine. […]
An ACAT reaction was measured by mixing a reaction buffer (0.19 M Tris-HCl pH 7.5, 3 mM EDTA, cholesterol 0.2 mg/ml, BSA 3 mg/ml), the aforementioned “atherosclerotic lesion sample”, and a substrate solution ([3H]Oleoyl-CoA), reacting the mixture with stirring at 37° C. for 30 minutes, fractionating a lipid fraction by thin layer chromatography, and measuring radioactivity (DPM) incorporated into a cholesteryl ester fraction with a liquid scintillation counter. Radioactivity of a blank sample (STE buffer instead of the homogenate was added) was also measured, and a value obtained by subtracting radioactivity of the blank from radioactivity of each sample was adopted as the ACAT enzyme activity. […]

Experiment [3] has as its system atherosclerotic lesion. Nature of the experiment: Anti-atherosclerotic activity test in WHHL rabbit: cholesterol ester content of thoracic aorta. The format is in vivo. How it is done: (§1) Using 7-month-old WHHL rabbits, the compound X (3, 10 mg/kg/day) was orally administered once a day for 12 weeks and influence on atherosclerosis was examined. Before drug administration, aortic atherosclerosis was tested by intravascular ultrasound (IVUS), and WHHL rabbits were grouped based on the aortic atherosclerosis, plasma cholesterol level and sex.
(§2) Before initiation of administration, and 1, 2, 4, 6, 8, 10, 12 weeks from administration, blood samples were collected, a plasma total cholesterol level of each sample was measured using a biochemical automatic analysis apparatus and a plasma total cholesterol exposure amount during the administration period was obtained by a trapezoid formula. After administration, the thoracic aorta was removed, and a cholesterol ester content as an index of atherosclerosis was measured.

Experiment [4] in a line: Anti-atherosclerotic activity test in WHHL rabbit: plasma total cholesterol exposure amount. Type of experiment: in vivo. The settings on record: for Plasma total cholesterol exposure amount during administration period: average ± standard error, control 6194 ± 511, no significant difference (Williams' test). How it is done:
as §1, §2

Turning to `CC(C)c1cc(C(C)C)c(CC(=O)NS(=O)(=O)Oc2c(C(C)C)cccc2C(C)C)c(C(C)C)c1` [Avasimibe], the “anti-atherosclerotic activity: cholesterol ester in an atherosclerotic lesion” value in the experiment with atherosclerotic lesion [1] was “lowering a cholesterol ester in an atherosclerotic lesion”. In addition, in experiment [2], the anti-atherosclerotic activity result is on record as “no effect was observed” and the “effect on blood lipid level” value is given as “certain effect”.
Take “Monopotassium bis((2E)-3-{3-[7-chloro-3-(2-{[4-fluoro-2-(trifluoromethyl)phenyl]amino}-2-oxoethyl)-6-methyl-2-oxo-2H-chromen-4-yl]phenyl}acrylate) trihydrate [compound X]”: the “inhibition of ACAT enzyme activity, LAL correction” value at ACAT (3 mg/kg orally once a day for 3 days, vs control group) is listed as “significant inhibition”. In addition, at ACAT (3 and 10 mg/kg, administration for 3 days), the “inhibition of atherosclerotic lesion ACAT activity utilizing the correction marker” value was “inhibited the atherosclerotic lesion ACAT activity of the WHHL rabbit dose-dependently”. In the experiment with atherosclerotic lesion [3] (3 and 10 mg/kg, long-term treatment), the “anti-atherosclerotic activity by long-term treatment” value is listed as “clear anti-atherosclerotic activity”. Moreover, the “cholesterol ester content of the thoracic aorta” value in the experiment with atherosclerotic lesion [3] (3 and 10 mg/kg/day orally for 12 weeks (FIG. 10)) is reported as “significantly reduced”. The “Plasma total cholesterol exposure amount during administration period” value came out at 5356 ± 410 mg · week/dL in experiment [4] (3 mg/kg/day orally for 12 weeks) and 4957 ± 490 mg · week/dL in experiment [4] (10 mg/kg/day orally for 12 weeks). In experiment [4] (3 and 10 mg/kg/day orally for 12 weeks), the “effect on plasma total cholesterol exposure amount during the administration period (in words)” value is reported as “only a reduction tendency”.
